{"source": "patent US20130172294A1", "about": "“Treatment with VB-201” (Vascular Biogenics Ltd., priority 2010, published 2013)", "key": {"[1]": {"experiment": "Single-dose pharmacokinetics of VB-201 in plasma (Example 1)", "assay_type": "in vivo, human", "conditions": "for AUC(0-infinity): in ng·h/mL", "description": "Determination of VB-201 concentrations in plasma was performed using an HPLC-MS/MS (high performance liquid chromatography with tandem mass spectrometric detection) assay. Calibration was for a range of from 5 to 500 ng/ml for low doses and from 50 to 5000 ng/ml for high doses. Pharmacokinetic parameters were estimated by using a non-compartmental method, except for the AUC (area under curve), which was determined using a (log-) trapezoidal rule as the area above the previous trough level. […] All subjects were healthy male volunteers. Five cohorts of six subjects each received a single dose of 1, 3, 10, 30 or 50 mg VB-201. 10 subjects received a placebo. The VB-201 was formulated in gelatin capsules enterocoated with Eudragit®. […] Evaluation of relative bioavailability was performed for the primary target parameters AUC (area under the concentration-time curve) and Cmax-(maximum plasma concentration)."}, "C-reactive protein (CRP)": {"tested_on": "C-reactive protein (CRP)", "description": "C-reactive protein (CRP) levels in plasma samples were measured using a CRP Latex assay kit (Olympus) and an AU400® immuno-analyzer (Olympus).\nA randomized, double-blind, placebo-controlled study was performed to in order to investigate the safety, tolerability and pharmacokinetics of VB-201 at a repeated, daily dose taken orally. The subjects were all healthy volunteers. Cohorts of six subjects each received a daily dose of 40 or 80 mg VB-201 in the morning, following at least 10 hours of fasting, for 14 days. 6 subjects received a placebo. The VB-201 was formulated in non-enterocoated capsules.\nFurther studies were performed on an additional cohort, which included six subjects receiving a daily dose of 80 mg VB-201, as described hereinabove, for 28 days. An additional two subjects received a placebo.\nPlasma samples obtained on day 0 (pre-dosing) and on day 14 from the subjects in each cohort (40 mg for 14 days, 80 mg for 14 days, and 80 mg for 28 days), and on day 28 from the subjects of the cohort receiving 80 mg VB-201 for 28 days, were assayed for C-reactive protein (CRP) by the high sensitivity CRP assay described hereinabove."}, "[2]": {"experiment": "Pharmacokinetics of VB-201 in human subjects, summary over the studies", "assay_type": "in vivo", "description": "Determination of VB-201 concentrations in plasma was performed using an HPLC-MS/MS (high performance liquid chromatography with tandem mass spectrometric detection) assay. Calibration was for a range of from 5 to 500 ng/ml for low doses and from 50 to 5000 ng/ml for high doses. Pharmacokinetic parameters were estimated by using a non-compartmental method, except for the AUC (area under curve), which was determined using a (log-) trapezoidal rule as the area above the previous trough level. All calculations were made using PKWizard (developed by Russell Barbare and Dr. […] was validated against WinNonlin (Pharsight Corp.), which is an FDA-recognized validated program. Pharmacokinetic parameters were calculated by the program according to standard methods used in the art. Calculation of the pharmacokinetic characteristics was based on the actual blood sampling time (in hours), with predose times set to zero. Concentrations below the LLOQ (lower limit of quantification; 4.974 ng/ml) were assumed to be zero."}}, "note": "“And” between values parts separate entries of the source, which are not always exact repeats. Equal values may be shown once. Read-outs that look alike come from different tables or passages of the source.", "data": [{"smiles": "CCCCCCCCCCCCCCCCOCC(COP(=O)([O-])OCC[N+](C)(C)C)OCCCCC(=O)O", "note": "(stereo not drawn) [VB-201, 1-hexadecyl-2-(4′-carboxybutyl)-glycerol-3-phosphocholine]", "values": [{"measurement": "AUC(0-168)", "setting": "[1]; single oral dose 1 mg", "result": "501 ± 241", "unit": "ng·h/mL"}, {"measurement": "AUC(0-last non-BLQ)", "setting": "[1]; single oral dose 1 mg", "result": "388 ± 168", "unit": "ng·h/mL"}, {"measurement": "AUMC", "setting": "[1]; single oral dose 1 mg", "result": "70178 ± 38633", "unit": "hours^2*ng/ml"}, {"measurement": "Cavg (0-168)", "setting": "[1]; single oral dose 1 mg", "result": "2.98 ± 1.43", "unit": "ng/mL"}, {"measurement": "Cl/F", "setting": "[1]; single oral dose 1 mg", "result": "1.44 ± 0.087", "unit": "L/h"}, {"measurement": "Cmax", "setting": "[1]; single oral dose 1 mg", "result": "12.52 ± 2.42", "unit": "ng/mL"}, {"measurement": "Estimated amount circulating", "setting": "[1]; single oral dose 1 mg", "result": "0.26 ± 0.05", "unit": "mg"}, {"measurement": "Estimated minimum bioavailability", "setting": "[1]; single oral dose 1 mg", "result": "26 ± 5", "unit": "%"}, {"measurement": "Ke", "setting": "[1]; single oral dose 1 mg", "result": "0.0165 ± 0.0099", "unit": "h⁻¹"}, {"measurement": "MTT", "setting": "[1]; single oral dose 1 mg", "result": "76 ± 27", "unit": "h"}, {"measurement": "T1/2", "setting": "[1]; single oral dose 1 mg", "result": "51 ± 19", "unit": "h"}, {"measurement": "Tmax", "setting": "[1]; single oral dose 1 mg", "result": "8.0 ± 2.1", "unit": "h"}, {"measurement": "AUC(0-infinity)", "setting": "[1]; single oral dose 1 mg", "result": "840 ± 309"}, {"measurement": "AUC(0-168)", "setting": "[1]; single oral dose 3 mg", "result": "2575 ± 1027", "unit": "ng·h/mL"}, {"measurement": "AUC(0-last non-BLQ)", "setting": "[1]; single oral dose 3 mg", "result": "2234 ± 1259", "unit": "ng·h/mL"}, {"measurement": "AUMC", "setting": "[1]; single oral dose 3 mg", "result": "214719 ± 133999", "unit": "hours^2*ng/ml"}, {"measurement": "Cavg (0-168)", "setting": "[1]; single oral dose 3 mg", "result": "15.33 ± 6.11", "unit": "ng/mL"}, {"measurement": "Cl/F", "setting": "[1]; single oral dose 3 mg", "result": "1.21 ± 0.49", "unit": "L/h"}, {"measurement": "Cmax", "setting": "[1]; single oral dose 3 mg", "result": "53.21 ± 19.43", "unit": "ng/mL"}, {"measurement": "Estimated amount circulating", "setting": "[1]; single oral dose 3 mg", "result": "1.12 ± 0.41", "unit": "mg"}, {"measurement": "Estimated minimum bioavailability", "setting": "[1]; single oral dose 3 mg", "result": "37 ± 14", "unit": "%"}, {"measurement": "Ke", "setting": "[1]; single oral dose 3 mg", "result": "0.015 ± 0.0027", "unit": "h⁻¹"}, {"measurement": "MTT", "setting": "[1]; single oral dose 3 mg", "result": "70 ± 16", "unit": "h"}, {"measurement": "T1/2", "setting": "[1]; single oral dose 3 mg", "result": "48 ± 10", "unit": "h"}, {"measurement": "Tmax", "setting": "[1]; single oral dose 3 mg", "result": "8.2 ± 3.9", "unit": "h"}, {"measurement": "AUC(0-infinity)", "setting": "[1]; single oral dose 3 mg", "result": "2886 ± 1262"}, {"measurement": "AUC(0-168)", "setting": "[1]; single oral dose 10 mg", "result": "6138 ± 2259", "unit": "ng·h/mL"}, {"measurement": "AUC(0-last non-BLQ)", "setting": "[1]; single oral dose 10 mg", "result": "5634 ± 2705", "unit": "ng·h/mL"}, {"measurement": "AUMC", "setting": "[1]; single oral dose 10 mg", "result": "333614 ± 227308", "unit": "hours^2*ng/ml"}, {"measurement": "Cavg (0-168)", "setting": "[1]; single oral dose 10 mg", "result": "36.53 ± 13.44", "unit": "ng/mL"}, {"measurement": "Cl/F", "setting": "[1]; single oral dose 10 mg", "result": "1.83 ± 0.84", "unit": "L/h"}, {"measurement": "Cmax", "setting": "[1]; single oral dose 10 mg", "result": "131.7 ± 20.47", "unit": "ng/mL"}, {"measurement": "Estimated amount circulating", "setting": "[1]; single oral dose 10 mg", "result": "2.77 ± 0.62", "unit": "mg"}, {"measurement": "Estimated minimum bioavailability", "setting": "[1]; single oral dose 10 mg", "result": "28 ± 6", "unit": "%"}, {"measurement": "Ke", "setting": "[1]; single oral dose 10 mg", "result": "0.0191 ± 0.0026", "unit": "h⁻¹"}, {"measurement": "MTT", "setting": "[1]; single oral dose 10 mg", "result": "46 ± 20", "unit": "h"}, {"measurement": "T1/2", "setting": "[1]; single oral dose 10 mg", "result": "37 ± 5", "unit": "h"}, {"measurement": "Tmax", "setting": "[1]; single oral dose 10 mg", "result": "7.1 ± 1.9", "unit": "h"}, {"measurement": "AUC(0-infinity)", "setting": "[1]; single oral dose 10 mg", "result": "6395 ± 2551"}, {"measurement": "AUC(0-168)", "setting": "[1]; single oral dose 30 mg", "result": "23243 ± 7277", "unit": "ng·h/mL"}, {"measurement": "AUC(0-last non-BLQ)", "setting": "[1]; single oral dose 30 mg", "result": "23243 ± 7277", "unit": "ng·h/mL"}, {"measurement": "AUMC", "setting": "[1]; single oral dose 30 mg", "result": "1463889 ± 520387", "unit": "hours^2*ng/ml"}, {"measurement": "Cavg (0-168)", "setting": "[1]; single oral dose 30 mg", "result": "138.4 ± 43.32", "unit": "ng/mL"}, {"measurement": "Cl/F", "setting": "[1]; single oral dose 30 mg", "result": "1.37 ± 0.58", "unit": "L/h"}, {"measurement": "Cmax", "setting": "[1]; single oral dose 30 mg", "result": "495.0 ± 154.2", "unit": "ng/mL"}, {"measurement": "Estimated amount circulating", "setting": "[1]; single oral dose 30 mg", "result": "10.40 ± 3.24", "unit": "mg"}, {"measurement": "Estimated minimum bioavailability", "setting": "[1]; single oral dose 30 mg", "result": "35 ± 11", "unit": "%"}, {"measurement": "Ke", "setting": "[1]; single oral dose 30 mg", "result": "0.018 ± 0.0021", "unit": "h⁻¹"}, {"measurement": "MTT", "setting": "[1]; single oral dose 30 mg", "result": "59 ± 4", "unit": "h"}, {"measurement": "T1/2", "setting": "[1]; single oral dose 30 mg", "result": "39 ± 4", "unit": "h"}, {"measurement": "Tmax", "setting": "[1]; single oral dose 30 mg", "result": "6.0 ± 0.9", "unit": "h"}, {"measurement": "AUC(0-infinity)", "setting": "[1]; single oral dose 30 mg", "result": "24668 ± 7941"}, {"measurement": "AUC(0-168)", "setting": "[1]; single oral dose 50 mg", "result": "58816 ± 31297", "unit": "ng·h/mL"}, {"measurement": "AUC(0-last non-BLQ)", "setting": "[1]; single oral dose 50 mg", "result": "58816 ± 31297", "unit": "ng·h/mL"}, {"measurement": "AUMC", "setting": "[1]; single oral dose 50 mg", "result": "4719948 ± 3532459", "unit": "hours^2*ng/ml"}, {"measurement": "Cavg (0-168)", "setting": "[1]; single oral dose 50 mg", "result": "350.1 ± 186.3", "unit": "ng/mL"}, {"measurement": "Cl/F", "setting": "[1]; single oral dose 50 mg", "result": "0.97 ± 0.46", "unit": "L/h"}, {"measurement": "Cmax", "setting": "[1]; single oral dose 50 mg", "result": "1172 ± 459.4", "unit": "ng/mL"}, {"measurement": "Estimated amount circulating", "setting": "[1]; single oral dose 50 mg", "result": "24.61 ± 9.65", "unit": "mg"}, {"measurement": "Estimated minimum bioavailability", "setting": "[1]; single oral dose 50 mg", "result": 49, "unit": "%"}, {"measurement": "Ke", "setting": "[1]; single oral dose 50 mg", "result": "0.015 ± 0.0027", "unit": "h⁻¹"}, {"measurement": "MTT", "setting": "[1]; single oral dose 50 mg", "result": "67 ± 14", "unit": "h"}, {"measurement": "T1/2", "setting": "[1]; single oral dose 50 mg", "result": "47 ± 9", "unit": "h"}, {"measurement": "Tmax", "setting": "[1]; single oral dose 50 mg", "result": "6.5 ± 0.8", "unit": "h"}, {"measurement": "estimated bioavailability, average of the other 4 subjects", "setting": "[1]; single oral dose 50 mg", "result": 38, "unit": "%"}, {"measurement": "estimated bioavailability, 2 subjects with particularly high values", "setting": "[1]; single oral dose 50 mg, individual subjects", "result": "75% and 71%"}, {"measurement": "AUC(0-infinity)", "setting": "[1]; single oral dose 50 mg", "result": "65628 ± 37141"}, {"measurement": "dose linearity of AUC and Cmax", "setting": "[1]; single oral doses 1-50 mg", "result": "dose-linear and nearly dose-proportional"}, {"measurement": "highest estimated bioavailability observed in individuals", "setting": "[1]; single oral doses 1-50 mg", "result": 75, "unit": "%"}, {"measurement": "lowest estimated bioavailability observed in individuals", "setting": "[1]; single oral doses 1-50 mg", "result": 18, "unit": "%"}, {"measurement": "reduction of plasma CRP levels", "setting": "C-reactive protein (CRP); 40 mg per day for 14 days", "result": 49, "unit": "%"}, {"measurement": "reduction of plasma CRP levels", "setting": "C-reactive protein (CRP); 80 mg per day for 14 days", "result": 43, "unit": "%"}, {"measurement": "reduction of plasma CRP levels", "setting": "C-reactive protein (CRP); 80 mg per day for 28 days", "result": 45, "unit": "%"}, {"measurement": "time of peak plasma concentrations after administration", "setting": "[2]; oral, over the studies", "result": "6 to 11", "unit": "h"}, {"measurement": "minimum concentration during a 24-hour period relative to maximum concentration", "setting": "[2]; regular once-daily administration (FIGS. 2 and 4)", "result": "at least 66.7%"}]}]}
